Assay [1] in a line: Inhibition of bacterial New Delhi metallo-beta-lactamase 1. Also noted: species or system Bacteria.
A short description of assay [2]: Inhibition of bacterial VIM-2. More on the design: species or system Bacteria.
Assay [3] deals with Mycobacterium tuberculosis. The assay is described as follows: Antibacterial activity against aged non-growing Mycobacterium tuberculosis. The format is functional.
Assay [4] relates to Mycobacterium tuberculosis. The assay is described as follows: Antibacterial activity against Mycobacterium tuberculosis. The format is functional.
Assay [5] can be described thus: Inhibition of Mycobacterium tuberculosis MetAP1a.
Assay [6] can be described thus: Inhibition of Mycobacterium tuberculosis MetAP1c.
Assay [7] has as its target Methionine aminopeptidase 2 (Homo sapiens, UniProt P50579). The assay is described as follows: Inhibition of human MetAP2.
For assay [8], the target named is Methionine aminopeptidase 1 (Homo sapiens, UniProt P53582). Briefly: Inhibition of human MetAP1.
Assay [9] concerns the target Botulinum neurotoxin type A (Clostridium botulinum, UniProt P0DPI0). Briefly: Inhibition of Botulinum neurotoxins/A.
Assay [10] is described as follows: Inhibition of Mycobacterium tuberculosis FBA.
Assay [11] is described as follows: Inhibition of Mycobacterium tuberculosis Zmp1.
A short description of assay [12]: Inhibition of human zinc metalloprotease.

Converted amounts (≈) assume the structure as drawn.

Chain of Methionine aminopeptidase 2 (P50579 whole entry): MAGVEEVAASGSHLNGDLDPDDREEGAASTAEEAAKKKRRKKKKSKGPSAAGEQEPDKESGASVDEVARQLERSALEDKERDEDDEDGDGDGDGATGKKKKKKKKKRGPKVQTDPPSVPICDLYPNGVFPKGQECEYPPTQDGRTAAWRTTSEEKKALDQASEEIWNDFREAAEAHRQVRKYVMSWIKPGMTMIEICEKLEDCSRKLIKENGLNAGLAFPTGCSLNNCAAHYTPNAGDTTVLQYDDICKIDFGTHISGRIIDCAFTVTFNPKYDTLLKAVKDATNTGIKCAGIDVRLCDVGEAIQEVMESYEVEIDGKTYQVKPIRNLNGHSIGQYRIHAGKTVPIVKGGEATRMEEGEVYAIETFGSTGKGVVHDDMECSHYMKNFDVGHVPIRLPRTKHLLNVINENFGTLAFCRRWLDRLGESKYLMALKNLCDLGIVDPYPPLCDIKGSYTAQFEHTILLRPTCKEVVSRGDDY
Chain of Botulinum neurotoxin type A (P0DPI0 2-448 limits assumed): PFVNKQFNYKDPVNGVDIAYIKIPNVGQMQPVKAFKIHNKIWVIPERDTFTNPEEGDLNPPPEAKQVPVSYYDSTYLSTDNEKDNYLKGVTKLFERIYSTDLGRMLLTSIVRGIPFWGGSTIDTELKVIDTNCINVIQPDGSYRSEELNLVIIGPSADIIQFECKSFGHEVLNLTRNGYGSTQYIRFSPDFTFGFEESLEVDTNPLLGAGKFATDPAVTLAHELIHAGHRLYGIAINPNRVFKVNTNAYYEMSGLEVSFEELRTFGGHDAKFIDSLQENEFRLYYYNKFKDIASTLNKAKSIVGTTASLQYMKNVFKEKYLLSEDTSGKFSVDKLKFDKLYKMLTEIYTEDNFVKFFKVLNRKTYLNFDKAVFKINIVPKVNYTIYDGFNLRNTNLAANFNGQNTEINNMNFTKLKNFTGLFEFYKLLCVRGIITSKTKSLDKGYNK

Broadly, the IC50 is the concentration needed to halve the response being measured. Low values mean greater potency in that assay, high ones weaker potency in that assay. With `O=C(O)c1ccc2cccnc2c1O`, the results for the IC50 in [1] and in assay [2] were 0.76 µM and 0.74 µM, respectively.

By MIC is commonly meant the smallest concentration in the dilution series that meets the test's criterion for growth inhibition. Low readings indicate greater potency, high ones weaker potency. Regarding `Oc1c(Br)cc(Cl)c2cccnc12`, the MIC in [3] is 2.51 µM (≈ 0.649 µg/mL); in [4], 19.3 µM (≈ 5 µg/mL). Further, the half-maximal inhibitory concentration (IC50) turned out to be 5.44 µM in assay [5], 4.92 µM in assay [6], 112 µM in [7] and 105 µM in assay [8].

Consider `O=S(=O)(NC(c1cccc(F)c1)c1cc(Cl)c2cccnc2c1O)c1ccccc1` (stereo not drawn), for which, in assay [9], the 50% inhibitory concentration (IC50) stood at 5.8 µM.

`O=C(O)c1ccc2cccc(O)c2n1`: the figures for the IC50 in [10] and in assay [11] were 10 µM and greater than 10 µM, respectively.

In the case of `O=C(NOCc1ccccc1)c1ccc2cccc(O)c2n1`, the half-inhibitory concentration (IC50) in assay [12] is no less than 1 µM; in assay [11] it was 0.011 µM.
